The source made the active and inactive calls. How the calls were made is not given here.

For this series, the system named is CCRIS mutagenicity, Ames/micronucleus/aberration tests. The series can be described thus: CCRIS mutagenicity studies.
The mark [1] stands for this setting: Test System: AMES SALMONELLA TYPHIMURIUM, Strain/Indicator: TA98, Metabolic Activation: HAMSTER, LIVER, S-9, AROCLOR 1254, Method: STANDARD PLATE.
Setting [2] is: Test System: AMES SALMONELLA TYPHIMURIUM, Strain/Indicator: TA98, Metabolic Activation: NONE, Method: STANDARD PLATE.
The mark [3] stands for this setting: Test System: AMES SALMONELLA TYPHIMURIUM, Strain/Indicator: TA98, Metabolic Activation: RAT, LIVER, S-9, AROCLOR 1254, Method: STANDARD PLATE.
Setting [4] is: Test System: AMES SALMONELLA TYPHIMURIUM, Strain/Indicator: TA100, Metabolic Activation: NONE, Method: STANDARD PLATE.
The mark [5] stands for this setting: Test System: AMES SALMONELLA TYPHIMURIUM, Strain/Indicator: TA1535, Metabolic Activation: HAMSTER, LIVER, S-9, AROCLOR 1254, Method: STANDARD PLATE.
The mark [6] stands for this setting: Test System: AMES SALMONELLA TYPHIMURIUM, Strain/Indicator: TA1535, Metabolic Activation: NONE, Method: STANDARD PLATE.
The mark [7] stands for this setting: Test System: AMES SALMONELLA TYPHIMURIUM, Strain/Indicator: TA1535, Metabolic Activation: RAT, LIVER, S-9, AROCLOR 1254, Method: STANDARD PLATE.
The mark [8] stands for this setting: Test System: AMES SALMONELLA TYPHIMURIUM, Strain/Indicator: TA1537, Metabolic Activation: HAMSTER, LIVER, S-9, AROCLOR 1254, Method: STANDARD PLATE.
The mark [9] stands for this setting: Test System: AMES SALMONELLA TYPHIMURIUM, Strain/Indicator: TA1537, Metabolic Activation: NONE, Method: STANDARD PLATE.
Setting [10] is: Test System: AMES SALMONELLA TYPHIMURIUM, Strain/Indicator: TA1537, Metabolic Activation: RAT, LIVER, S-9, AROCLOR 1254, Method: STANDARD PLATE.
Where [11] appears, read: Test System: MOUSE LYMPHOMA, Strain/Indicator: L5178Y (TK+/TK-), Metabolic Activation: NONE, Method: SUSPENSION/PLATE.
[12] abbreviates: Test System: MOUSE LYMPHOMA, Strain/Indicator: L5178Y (TK+/TK-), Metabolic Activation: RAT, LIVER, S-9, AROCLOR 1254, Method: SUSPENSION/PLATE.

For the compound `Cc1nnc(NS(=O)(=O)c2ccc(N)cc2)s1`, the mutagenic call under setting [1] is “inactive; negative”; the mutagenic call under setting [2] was “inactive; negative”; the mutagenic call under setting [3] was “inactive; negative”; the mutagenic call (Test System: AMES SALMONELLA TYPHIMURIUM, Strain/Indicator: TA100, Metabolic Activation: HAMSTER, LIVER, S-9, AROCLOR 1254, Method: STANDARD PLATE) is “inactive; negative”; the mutagenic call under setting [4] was “inactive; negative”; the mutagenic call (Test System: AMES SALMONELLA TYPHIMURIUM, Strain/Indicator: TA100, Metabolic Activation: RAT, LIVER, S-9, AROCLOR 1254, Method: STANDARD PLATE) is “inactive; negative”. Moreover, the mutagenic call was “inactive; negative” under setting [5]; “inactive; negative” under setting [6]; “inactive; negative” under setting [7]; “inactive; negative” under setting [8]; “inactive; negative” under setting [9]; “inactive; negative” under setting [10]. Moreover, the mutagenic call is “inactive; negative” (Test System: AMES SALMONELLA TYPHIMURIUM, Strain/Indicator: TA1538, Metabolic Activation: HAMSTER, LIVER, S-9, AROCLOR 1254, Method: STANDARD PLATE); “inactive; negative” (Test System: AMES SALMONELLA TYPHIMURIUM, Strain/Indicator: TA1538, Metabolic Activation: NONE, Method: STANDARD PLATE); “inactive; negative” (Test System: AMES SALMONELLA TYPHIMURIUM, Strain/Indicator: TA1538, Metabolic Activation: RAT, LIVER, S-9, AROCLOR 1254, Method: STANDARD PLATE); “inactive; negative. reevaluation of results: negative” under setting [11]; “inactive; negative. reevaluation of results: equivocal” under setting [12].

`Nc1c(O)ccc2ccccc12`: where the note is “Test System: AMES SALMONELLA TYPHIMURIUM, Strain/Indicator: TA100, Metabolic Activation: RAT, LIVER, S-9, AROCLOR 1254, Method: PREINCUBATION”, the mutagenic call is “inactive; negative”.

In the case of `OCc1ccc2ccc3cccc4ccc1c2c34`, the mutagenic call (Test System: AMES SALMONELLA TYPHIMURIUM, Strain/Indicator: TA98, Metabolic Activation: HUMAN, LIVER, CYTOSOL, PAPS, Method: PREINCUBATION) was “active; positive”; the mutagenic call (Test System: AMES SALMONELLA TYPHIMURIUM, Strain/Indicator: TA98, Metabolic Activation: NONE, Method: PREINCUBATION) is “inactive; negative”; the mutagenic call (Test System: AMES SALMONELLA TYPHIMURIUM, Strain/Indicator: TA98, Metabolic Activation: RAT, LIVER, CYTOSOL, KCL, Method: PREINCUBATION) was “inactive; negative”; the mutagenic call (Test System: AMES SALMONELLA TYPHIMURIUM, Strain/Indicator: TA98, Metabolic Activation: RAT, LIVER, CYTOSOL, PAPS, KCL, Method: PREINCUBATION) was “active; positive”; the mutagenic call (Test System: AMES SALMONELLA TYPHIMURIUM, Strain/Indicator: TA98, Metabolic Activation: RAT, LIVER, CYTOSOL, PAPS, Method: PREINCUBATION) was “active; positive”; the mutagenic call (Test System: AMES SALMONELLA TYPHIMURIUM, Strain/Indicator: TA98, Metabolic Activation: RAT, LIVER, PAPS, KCL, Method: PREINCUBATION) is “inactive; negative”. Besides, the mutagenic call was “active; positive” (Test System: AMES SALMONELLA TYPHIMURIUM, Strain/Indicator: TA98, Metabolic Activation: RAT, LIVER, S-9, NADPH, Method: PREINCUBATION); “active; positive” (Test System: UDS CHINESE HAMSTER V-79 CELLS, Metabolic Activation: NONE, Method: AUTORADIOGRAPHY); “inactive; negative” (Test System: UDS CHINESE HAMSTER V-79 CELLS, Strain/Indicator: V-79-MZ/CYTIDINE INCORPORATION, Metabolic Activation: NONE, Method: AUTORADIOGRAPHY); “active; positive” (Test System: UDS CHINESE HAMSTER V-79 CELLS, Strain/Indicator: V-79-RHST20/CYTIDINE INCORPORATION, Metabolic Activation: NONE, Method: AUTORADIOGRAPHY); “active; positive” (Test System: UDS CHINESE HAMSTER V-79 CELLS, Strain/Indicator: V-79-RHSTA/CYTIDINE INCORPORATION, Metabolic Activation: NONE, Method: AUTORADIOGRAPHY); “active; positive” (Test System: UDS CHINESE HAMSTER V-79 CELLS, Strain/Indicator: V-79-RPST-IV/CYTIDINE INCORPORATION, Metabolic Activation: NONE, Method: AUTORADIOGRAPHY).

As to `O=c1c(O)c(-c2ccc(O)cc2)oc2cc(O)cc(O)c12`, the mutagenic call is, setting by setting: (Test System: AMES SALMONELLA TYPHIMURIUM, Strain/Indicator: TA97A, Metabolic Activation: NONE, Method: STANDARD PLATE) “inactive; negative”; (Test System: AMES SALMONELLA TYPHIMURIUM, Strain/Indicator: TA97A, Metabolic Activation: RAT, LIVER, S-9, AROCLOR 1254, Method: STANDARD PLATE) “active; positive”; under setting [1], “active; positive”; under setting [2], “inactive; negative”; (Test System: AMES SALMONELLA TYPHIMURIUM, Strain/Indicator: TA98, Metabolic Activation: RAT, LIVER, S-9, 5,6-BENZOFLAVONE AND/OR SODIUM PHENOBARBITAL, Method: PREINCUBATION) “active; positive”; under setting [3], “active; positive”. Moreover, the mutagenic call reads like this: (Test System: AMES SALMONELLA TYPHIMURIUM, Strain/Indicator: TA98, Metabolic Activation: RAT, LIVER, S-105, 5,6-BENZOFLAVONE AND/OR SODIUM PHENOBARBITAL, Method: PREINCUBATION) “inactive; negative”; under setting [4], “inactive; negative”; (Test System: AMES SALMONELLA TYPHIMURIUM, Strain/Indicator: TA102, Metabolic Activation: NONE, Method: STANDARD PLATE) “inactive; negative”; (Test System: AMES SALMONELLA TYPHIMURIUM, Strain/Indicator: TA102, Metabolic Activation: RAT, LIVER, S-9, AROCLOR 1254, Method: STANDARD PLATE) “active; positive”; under setting [5], “inactive; negative”; under setting [6], “inactive; negative”. Moreover, the mutagenic call under setting [7] was “inactive; negative”; the mutagenic call under setting [8] is “active; positive”; the mutagenic call under setting [9] was “inactive; negative”; the mutagenic call under setting [10] was “active; positive”; the mutagenic call under setting [11] is “active; positive. reevaluation of results: positive”; the mutagenic call under setting [12] is “active; positive. reevaluation of results: equivocal”.

With `Cc1ccc2cc3c(cc2c1)-c1cccc2cccc-3c12`, the mutagenic call (Test System: AMES SALMONELLA TYPHIMURIUM, Strain/Indicator: TA100, Metabolic Activation: RAT, LIVER, S-9, AROCLOR 1254) is “active; positive”.

For the origin of these results see PubChem BioAssay AID1259407 (Chemical Carcinogenesis Research Information System (CCRIS), 2018).
